Conditions: in vivo
Protocol: The primary objectives were to assess iron uptake and ferric maltol pharmacokinetics. Serum iron and TSAT provided measures of iron uptake. In adults, dissociated maltol undergoes rapid glucuronidation and is cleared in urine as maltol glucuronide (36); therefore, in this study, plasma maltol glucuronide was measured to confirm the rate of clearance in children.
Sparse pharmacokinetic blood sampling was performed at baseline before the morning dose and at prespecified collection windows 0.5–6 hours after the morning dose on days 1 and 10, giving 3 to 6 samples per time point. The post-dose pharmacokinetic sample collection windows were 0.5–<1, 1–<2, 2–<3, 3–<4, and 4–<6 hours, with patients assigned to post-dose pharmacokinetic blood sampling schedules in sequential order at randomization. Individuals had the same schedule on days 1 and 10. Plasma maltol glucuronide and serum iron and TSAT were measured at each time point to calculate standard pharmacokinetic parameters.
The observed values for plasma maltol glucuronide and serum iron and TSAT were summarized by dose group and visit for the ITT population, as were changes from baseline in serum iron and TSAT. The ITT population was also used in the population pharmacokinetic analysis. […]

Structure (SMILES): Cc1occc(=O)c1O[C@@H]1O[C@H](C(=O)O)[C@@H](O)[C@H](O)[C@H]1O [maltol glucuronide]
- Cmax and AUC of maltol glucuronide: dose dependence: dose-dependent

Reference: publication PMC10191551, “Safety, Tolerability, and Pharmacokinetics of Oral Ferric Maltol in Children With Iron Deficiency: Phase 1 Study” (JPGN Reports, 2021)
